Reference: patent US20240417435A1, “DEFENSIN-DERIVED PEPTIDE WITH ANTIBACTERIAL ACTIVITY ALSO AGAINST MULTI-ANTIBIOTIC-RESISTANT BACTERIA” (priority 2021, published 2024)
Converted amounts (≈) assume the structure as drawn. Read-outs that look alike come from different tables or passages of the source. Where a SMILES comes first, the peptide text is derived from it. Bridges are numbered along the chain shown (N, C = ends).

Key:
[1] = tested on: MRSA strain 1; type: cell-based, Staphylococcus aureus
Protocol: (§1) The antimicrobial activity of peptide γ2 was evaluated versus Pseudomonas aeruginosa ATCC 27853, Escherichia coli ATCC 13762 and Staphylococcus aureus ATCC 6538, and versus multidrug-resistant (MDR) clinical isolates of Methicillin-Resistant Staphylococcus aureus (MRSA), extended-spectrum β-lactamase (ESBL)-producing E. coli, P. aeruginosa and Acinetobacter baumannii complex. The isolates were identified by mass spectrometry using the MALDI (matrix-assisted laser desorption/ionisation) mass spectrometer and the biochemical phenotyping method in a VITEKR 2 bioMérieux system (bioMérieux Italia S.p.a., Bagno a Ripoli, Florence, Italy), according to the manufacturer's instructions. The antibiotic susceptibility profile was evaluated with the VITEKR 2 bioMérieux System. The microorganisms were cultured in broth and agar at 37° C. The media used were BD Brain Heart Infusion broth (BHI) (BD, Franklin Lakes, NJ, USA) and BHI agar (OXOID, Basingstoke, Hampshire, UK), BD Trypticase Soy agar with 5% sheep's blood and MacConkey agar (OXOID, Basingstoke, Hampshire, UK). The isolates were stored frozen at −80° C. in BHI broth supplemented with 10% (v/v) glycerol (Carlo Erba Reagents, Milan, Italy) until use, and the work cultures were activated in the respective broths at 37° C. for 15-18 h.
(§2) Assays of the antibacterial activity of peptide γ2, in both reduced and oxidised form, were conducted against P. aeruginosa ATCC 27853, E. coli ATCC 13762, S. aureus ATCC 6538 and MDR clinical isolates. The strains were cultured under aerobic conditions in BHI broth at 37° C. and incubated with peptide γ2 for 2 hours at 37° C. Various concentrations of peptide were used, ranging from 1 μM to 128 μM. Each test was conducted in triplicate with three independent cultures. The minimum inhibitory concentration (MIC) and the minimum bactericidal concentration (MBC) of the peptide were determined with a modified version of the Clinical and Laboratory Standards Institute broth microdilution assay, using a final inoculum concentration of 10^5 CFU/ml, as previously described (Scudiero O et al., Antimicrob Agents Chemother 2010; 54:2312-22; Scudiero O et al. Antimicrob Ag Chemother 2013; 57:1701-8).
(§3) The MIC is indicated by the concentration interval, which comprise the upper growth limit and the first concentration which could not support visible bacterial growth after incubation. The MBC was defined as the lowest concentration at which no viable colonies were observed. The peptide concentrations were 128.0, 64.0, 32.0, 16.0, 8.0, 4.0, 2.0 and 1 μM. For the time-kill studies against the ATCC and MDR strains, the bacteria were cultured in BHI broth until the late log growth phase at 37° C. The bacterial suspensions, containing about 10^6 CFU/ml (adjusted by the spectrophotometer to OD600 nm), were diluted 1:100 in PBS1× and then incubated at 37° C. with or without the peptide, selected at concentrations corresponding to 1, 2 and 4×MIC (as determined above). At baseline and 1, 2, 3 and 5 hours after incubation, a portion of each sample was harvested, diluted in series in PBS1× and seeded on BHI agar. The plates were incubated for […] at 37° C., and the viable bacteria count was conducted by the CFU method. All the data were expressed as mean±SD of three independent experiments.

[2] = tested on: MRSA strain 2; type: cell-based, Staphylococcus aureus
Protocol: as §1, §2, §3

[3] = tested on: MRSA strain 3; type: cell-based, Staphylococcus aureus
Protocol: as §1, §2, §3

[4] = tested on: S. aureus ATCC 6538; type: cell-based, Staphylococcus aureus
Protocol: as §1, §2, §3

[5] = tested on: E. coli ATCC 13762; type: cell-based, Escherichia coli
Protocol: as §1, §2, §3

[6] = tested on: E. coli ESBL strain 1; type: cell-based, Escherichia coli
Protocol: as §1, §2, §3

[7] = tested on: E. coli ESBL strain 2; type: cell-based, Escherichia coli
Protocol: as §1, §2, §3

[8] = tested on: P. aeruginosa ATCC 27853; type: cell-based, Pseudomonas aeruginosa
Protocol: as §1, §2, §3

[9] = tested on: P. aeruginosa MDR strain 1; type: cell-based, Pseudomonas aeruginosa
Protocol: as §1, §2, §3

[10] = tested on: P. aeruginosa MDR strain 2; type: cell-based, Pseudomonas aeruginosa
Protocol: as §1, §2, §3

[11] = tested on: A. baumannii MDR strain 1; type: cell-based, Acinetobacter baumannii complex
Protocol: as §1, §2, §3

[12] = tested on: A. baumannii MDR strain 2; type: cell-based, Acinetobacter baumannii complex
Protocol: as §1, §2, §3

[13] = tested on: A549 cells; test: Cell migration assay in Boyden chambers; type: cell-based; conditions: 10 nM, 4 h
Protocol: (§4) Cell migration assays were conducted as previously described (Bifulco K et al., Mol Cancer There 2013; 2:1981-93), using Boyden chambers and polyvinylpyrrolidone-free polycarbonate filters with 8 μm pores inserted between a lower and upper compartment. Briefly, the cell suspension (1×10^5 viable cells/mL of serum-free medium) was seeded in each upper chamber. The lower chambers were filled with DMEM only, DMEM containing 10 nM N-formyl-methionyl-leucylphenylalanine peptide (fMLF), as positive control, or increasing peptide γ2 concentration. Incubation was conducted for 4 h at 37° C. in air humidified with 5% CO2. At the end of the assay, the cells on the lower surface of the filter were fixed with ethanol and stained with haematoxylin, and 10 random fields/filter were counted with a 200× magnification. The extent of cell migration was expressed as a percentage of baseline cell migration evaluated in the absence of chemo-attractants, taken as 100% (CTRL).

[14] = tested on: HT-1080 cells; test: Cell migration assay in Boyden chambers; type: cell-based; conditions: 10 nM, 4 h
Protocol: as §4

[15] = tested on: HUVEC endothelial cells; test: Cell migration assay in Boyden chambers; type: cell-based; conditions: endothelial cells (HUVEC); 10 nM; 4 h
Protocol: as §4

## CC[C@H](C)[C@@H]1NC(=O)[C@H](CCC(N)=O)NC(=O)[C@H](CCCNC(=N)N)NC(=O)[C@H](CCCNC(=N)N)NC(=O)[C@H](CCCCN)NC(=O)[C@@H]2CCCN2C(=O)[C@H](CC(C)C)NC(=O)[C@@H](NC(C)=O)CSSC[C@@H](C(=O)N[C@@H](CCCCN)C(=O)N[C@@H](CCCCN)C(N)=O)NC(=O)[C@H](CO)NC(=O)[C@H](CCCCN)NC(=O)[C@H](CCCNC(=N)N)NC(=O)CNC(=O)[C@H](CCCNC(=N)N)NC(=O)[C@H]([C@@H](C)O)NC(=O)[C@H](CO)NC(=O)[C@H](CO)NC(=O)[C@H](CCCCN)NC(=O)CNC1=O [Oxidised peptide γ2] (Ac-CLPKRRQIGKSSTRGRKSCKK-NH2; disulfide 1-19 (inferred))
[1]
  MBC: 2 µM (≈ 4.91 µg/mL)
  MIC: 1 µM (≈ 2.46 µg/mL)
[2]
  MBC: 16 µM (≈ 39.3 µg/mL)
  MIC: 2 µM (≈ 4.91 µg/mL)
[3]
  MBC: 32 µM (≈ 78.6 µg/mL)
  MIC: 2 µM (≈ 4.91 µg/mL)
[4]
  MBC: 8 µM (≈ 19.7 µg/mL)
[5]
  MBC: 1 µM (≈ 2.46 µg/mL)
  MIC: 1 µM (≈ 2.46 µg/mL)
[6]
  MBC: 2 µM (≈ 4.91 µg/mL)
  MIC: 2 µM (≈ 4.91 µg/mL)
[7]
  MBC: 32 µM (≈ 78.6 µg/mL)
  MIC: 1 µM (≈ 2.46 µg/mL)
[8]
  MBC: 4 µM (≈ 9.83 µg/mL)
[9]
  MBC: 32 µM (≈ 78.6 µg/mL)
[10]
  MBC: 32 µM (≈ 78.6 µg/mL)
  MIC: 1 µM (≈ 2.46 µg/mL)
[11]
  MBC: 128 µM (≈ 314 µg/mL)
[12]; MDR strain 2
  MBC: 4 µM (≈ 9.83 µg/mL)
  MIC: 4 µM (≈ 9.83 µg/mL)
[12]; multidrug-resistant clinical strain 2 of A. baumannii
  MIC: 4 µM (≈ 9.83 µg/mL)

## N-formyl-methionyl-leucylphenylalanine peptide [fMLF, reference compound]
[13]
  cell migration, % of the baseline cell migration: 153%
[14]
  cell migration, % of the baseline cell migration: 167%
[15]
  cell migration, % of the baseline cell migration: 166%
